Measured values reported in patent publication US20220306695A1, “COMPSTATIN ANALOGUES AND THEIR MEDICAL USES” (priority 2019, published 2022).
Read-outs that look alike come from different tables or passages of the source. Starred links: 1 amine or outer side, 2 acyl side, 3 side chain; linkers in the order of their positions; H or OH if unused. Positions of bridges follow the written chain, without caps; N, C: chain ends. Non-standard residues stand in square brackets, D forms with d. Residues, ends and D or L forms follow the SMILES beside them. Groups on a side chain read outwards from the residue. *: point of attachment. Trp(1-Me) = Cn1cc(C[C@H](N)C(=O)O)c2ccccc21; Abu(4-yl) = O=C([C@H](CC[*:3])N[*:1])[*:2]; C18 diacid = O=C(O)CCCCCCCCCCCCCCCCC(=O)*; C16 diacid = O=C(O)CCCCCCCCCCCCCCC(=O)*; γGlu = O=C(O)[C@H](CCC(=O)[*:2])N[*:1]; 2Nal = N[C@@H](Cc1ccc2ccccc2c1)C(=O)O; AEEA = NCCOCCOCC(=O)O; Sar = CNCC(=O)O

Tested on: classical complement pathway
Test: In vitro haemolysis assay (inhibition of classical complement pathway)
Assay type: cell-based, human
In short: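 Serially diluted compound (9 points) was preincubated 15 min at room temperature with diluted human serum, titrated per batch to give 70-90% maximal haemolysis, in Tris/casein buffer pH 7.4 with Mg2+/Ca2+. Antibody-sensitized sheep erythrocytes were then added for 30 min at 37° C, and the reaction was stopped with EDTA. Haemolysis was read at A405, with IC50 from 4PL fit.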

[1] = Table 3, human serum, sensitized sheep red blood cells, read-out: IC50[nM], in vitro analysis of inhibition of hemolysis
[2] = Table 4, valine 3 versus isoleucine 3 pairs, read-out: CP hemolysis IC50
[3] = Table 5, different residues at position 3 of Ac-IC(1)XWQDWGEHRC(1)T-NH2, read-out: IC50, CP hemolysis

Compound | IC50 [1] [nM] | IC50 [2] [nM] | IC50 [3] [nM]
CC[C@H](C)[C@@H]1NC(=O)[C@@H](NC(=O)[C@H](Cc2ccccc2)NC(=O)[C@H](CCC(=O)O)NC(=O)[C@H](CO)NC(C)=O)CSCC[C@@H](C(=O)N[C@H](C(=O)N[C@@H](CCC(=O)O)C(=O)NCC(=O)N[C@@H](CCC(=O)O)C(=O)NCC(=O)NCC(=O)NCC(=O)N[C@@H](CCCCNC(=O)CC[C@H](NC(=O)CNC(=O)CC[C@H](NC(=O)CCCCCCCCCCCCCCCCC(=O)O)C(=O)O)C(=O)O)C(N)=O)[C@@H](C)O)NC(=O)[C@H](CCCNC(=N)N)NC(=O)[C@H](Cc2c[nH]cn2)NC(=O)[C@H](CCC(=O)O)NC(=O)CNC(=O)[C@H](Cc2c[nH]c3ccccc23)NC(=O)[C@H](CC(=O)O)NC(=O)[C@H](CCC(N)=O)NC(=O)[C@H](Cc2cn(C)c3ccccc23)NC1=O [Compound 157, Ac-SEFA(1)I[1-Me-Trp]QDWGEHRhC(1)TEGEGGG-K([17-carboxy-heptadecanoyl][γGlu]G[γGlu])-NH2] (Ac-SEFCI[Trp(1-Me)]QDWGEHR[Abu(4-yl)]TEGEGGGK([γGlu-Gly-γGlu-C18 diacid])-NH2; thioether 4-14) | < 100 |  | 
CC[C@H](C)[C@H](NC(=O)[C@H](C)NC(=O)[C@H](CO)NC(=O)[C@H](CO)NC(=O)[C@H](CCC(=O)O)NC(C)=O)C(=O)N[C@H]1CSSC[C@@H](C(=O)N[C@H](C(N)=O)[C@@H](C)O)NC(=O)[C@H](CCCNC(=N)N)NC(=O)[C@H](Cc2c[nH]cn2)NC(=O)[C@H](CCC(=O)O)NC(=O)CNC(=O)[C@H](Cc2c[nH]c3ccccc23)NC(=O)[C@H](CC(=O)O)NC(=O)[C@H](CCC(N)=O)NC(=O)[C@H](Cc2c[nH]c3ccccc23)NC(=O)[C@H](C(C)C)NC1=O [C, reference compound] (Ac-ESSAICVWQDWGEHRCT-NH2; disulfide 6-16) |  | 300 | 
CC[C@H](C)[C@H](NC(C)=O)C(=O)N[C@H]1CSSC[C@@H](C(=O)N[C@H](C(N)=O)[C@@H](C)O)NC(=O)[C@H](CO)NC(=O)[C@H](Cc2c[nH]cn2)NC(=O)[C@H](C)NC(=O)CNC(=O)[C@H](Cc2c[nH]c3ccccc23)NC(=O)[C@H](CC(=O)O)NC(=O)[C@H](CCC(N)=O)NC(=O)[C@H](Cc2c[nH]c3ccccc23)NC(=O)[C@H]([C@@H](C)CC)NC1=O [Compound 19] (Ac-ICIWQDWGAHSCT-NH2; disulfide 2-12) | < 250 | 140 | 
CC[C@H](C)[C@H](NC(C)=O)C(=O)N[C@H]1CSSC[C@@H](C(=O)N[C@H](C(N)=O)[C@@H](C)O)NC(=O)[C@H](CCCNC(=N)N)NC(=O)[C@H](Cc2c[nH]cn2)NC(=O)[C@H](CCC(=O)O)NC(=O)CNC(=O)[C@H](Cc2c[nH]c3ccccc23)NC(=O)[C@H](CC(=O)O)NC(=O)[C@H](CCC(N)=O)NC(=O)[C@H](Cc2c[nH]c3ccccc23)NC(=O)[C@H](C(C)C)NC1=O [A, reference compound] (Ac-ICVWQDWGEHRCT-NH2; disulfide 2-12) |  | 350 | 350
CC(C)C[C@H](N)C(=O)O [Leucine, reference compound] |  |  | 500
CC[C@H](C)[C@@H]1NC(=O)[C@@H](NC(=O)[C@H](Cc2ccccc2)NC(C)=O)CSSC[C@@H](C(=O)N[C@H](C(=O)NCC(=O)N[C@@H](C)C(=O)N[C@@H](CCC(=O)O)C(=O)N[C@@H](CO)C(N)=O)[C@@H](C)O)NC(=O)[C@H](CCCNC(=N)N)NC(=O)[C@H](Cc2c[nH]cn2)NC(=O)[C@H](CCC(=O)O)NC(=O)CNC(=O)[C@H](Cc2c[nH]c3ccccc23)NC(=O)[C@H](CC(=O)O)NC(=O)[C@H](CCC(N)=O)NC(=O)[C@H](Cc2ccc3ccccc3c2)NC1=O [Compound 64] (Ac-FCI[2Nal]QDWGEHRCTGAES-NH2; disulfide 2-12) | < 100 |  | 
CC[C@H](C)[C@@H]1NC(=O)[C@@H](NC(=O)CN(C)C(=O)[C@H](N)Cc2ccc(O)cc2)CSSC[C@@H](C(=O)N[C@H](C(=O)N[C@@H](CCC(=O)O)C(=O)N[C@@H](C)C(N)=O)[C@@H](C)O)NC(=O)[C@H](CCCNC(=N)N)NC(=O)[C@H](Cc2c[nH]cn2)NC(=O)[C@H](CCC(=O)O)NC(=O)CNC(=O)[C@H](Cc2c[nH]c3ccccc23)NC(=O)[C@H](CC(=O)O)NC(=O)[C@H](CCC(N)=O)NC(=O)[C@H](Cc2cn(C)c3ccccc23)NC1=O [Compound 91] (H-[dY][Sar]CI[Trp(1-Me)]QDWGEHRCTEA-NH2; disulfide 3-13) | < 100 |  | 
CC[C@H](C)[C@@H]1NC(=O)[C@@H](NC(=O)[C@H](Cc2ccccc2)NC(=O)[C@H](C)NC(=O)[C@H](CO)NC(=O)CNC(=O)[C@H](CCC(=O)O)NC(C)=O)CSSC[C@@H](C(=O)N[C@@H](CCC(=O)O)C(=O)NCC(=O)N[C@@H](CCC(=O)O)C(N)=O)NC(=O)[C@H](CCCNC(=N)N)NC(=O)[C@H](Cc2c[nH]cn2)NC(=O)[C@H](CCC(=O)O)NC(=O)CNC(=O)[C@H](Cc2c[nH]c3ccccc23)NC(=O)[C@H](CC(=O)O)NC(=O)[C@H](CCC(N)=O)NC(=O)[C@H](Cc2cn(C)c3ccccc23)NC1=O [Compound 58] (Ac-EGSAFCI[Trp(1-Me)]QDWGEHRCEGE-NH2; disulfide 6-16) | < 100 |  | 
CC[C@H](C)[C@@H]1NC(=O)[C@@H](NC(=O)[C@H](Cc2ccccc2)NC(=O)[C@H](CCC(=O)O)NC(=O)[C@H](CO)NC(C)=O)CSCC[C@@H](C(=O)N(C)CC(=O)N[C@@H](CCC(=O)O)C(=O)NCC(=O)N[C@@H](CCC(=O)O)C(=O)NCCOCCOCC(=O)NCCOCCOCC(=O)N[C@@H](CCCCNC(=O)CC[C@H](NC(=O)CNC(=O)CC[C@H](NC(=O)CCCCCCCCCCCCCCC(=O)O)C(=O)O)C(=O)O)C(N)=O)NC(=O)[C@H](CCCNC(=N)N)NC(=O)[C@H](Cc2c[nH]cn2)NC(=O)[C@H](CCC(=O)O)NC(=O)CNC(=O)[C@H](Cc2c[nH]c3ccccc23)NC(=O)[C@H](CC(=O)O)NC(=O)[C@H](CCC(N)=O)NC(=O)[C@H](Cc2cn(C)c3ccccc23)NC1=O [Compound 160, Ac-SEFA(1)I[1-Me-Trp]QDWGEHRhC(1)[Sar]EGE[Peg3][Peg3]-K([15-carboxy-pentadecanoyl][γGlu]G[γGlu])-NH2] (Ac-SEFCI[Trp(1-Me)]QDWGEHR[Abu(4-yl)][Sar]EGE[AEEA][AEEA]K([γGlu-Gly-γGlu-C16 diacid])-NH2; thioether 4-14) | < 100 |  | 
CC[C@H](C)[C@@H]1NC(=O)[C@@H](NC(=O)[C@H](Cc2ccc(O)cc2)NC(C)=O)CSSC[C@@H](C(=O)N[C@H](C(N)=O)[C@@H](C)O)NC(=O)[C@H](CCCNC(=N)N)NC(=O)[C@H](Cc2c[nH]cn2)NC(=O)[C@H](CCC(=O)O)NC(=O)CNC(=O)[C@H](Cc2c[nH]c3ccccc23)NC(=O)[C@H](CC(=O)O)NC(=O)[C@H](CCC(N)=O)NC(=O)[C@H](Cc2c[nH]c3ccccc23)NC1=O [Compound 9] (Ac-YCIWQDWGEHRCT-NH2; disulfide 2-12) | < 100 |  | 
CC[C@H](C)[C@@H]1NC(=O)[C@@H](NC(=O)[C@H](Cc2ccc(O)cc2)NC(C)=O)CSSC[C@@H](C(=O)N[C@H](C(=O)N[C@@H](CCC(=O)O)C(=O)N[C@@H](CO)C(=O)NCC(=O)N[C@@H](C)C(N)=O)[C@@H](C)O)NC(=O)[C@H](CCCNC(=N)N)NC(=O)[C@H](Cc2c[nH]cn2)NC(=O)[C@H](CCC(=O)O)NC(=O)CNC(=O)[C@H](Cc2c[nH]c3ccccc23)NC(=O)[C@H](CC(=O)O)NC(=O)[C@H](CCC(N)=O)NC(=O)[C@H](Cc2cn(C)c3ccccc23)NC1=O [Compound 69] (Ac-YCI[Trp(1-Me)]QDWGEHRCTESGA-NH2; disulfide 2-12) | < 100 |  | 
CC[C@H](C)[C@H](NC(=O)[C@H](C)NC(=O)[C@H](CO)NC(C)=O)C(=O)N[C@H]1CSSC[C@@H](C(=O)N[C@H](C(=O)N[C@@H](CCC(=O)O)C(=O)NCC(N)=O)[C@@H](C)O)NC(=O)[C@H](CCCNC(=N)N)NC(=O)[C@H](Cc2c[nH]cn2)NC(=O)[C@H](CCC(=O)O)NC(=O)CNC(=O)[C@H](Cc2c[nH]c3ccccc23)NC(=O)[C@H](CC(=O)O)NC(=O)[C@H](CCC(N)=O)NC(=O)[C@H](Cc2c[nH]c3ccccc23)NC(=O)[C@H]([C@@H](C)CC)NC1=O [Compound 42] (Ac-SAICIWQDWGEHRCTEG-NH2; disulfide 4-14) | < 250 |  | 
CC[C@H](C)[C@@H]1NC(=O)[C@@H](NC(=O)[C@H](Cc2ccc(O)cc2)NC(=O)[C@H](CCC(=O)O)NC(=O)CNC(=O)[C@H](CO)NC(=O)[C@H](C)NC(C)=O)CSSC[C@@H](C(=O)N(C)CC(=O)N[C@@H](CCC(=O)O)C(=O)NCC(=O)N[C@@H](CCC(=O)O)C(=O)N[C@@H](CCCCNC(=O)CC[C@H](NC(=O)CNC(=O)CC[C@H](NC(=O)CCCCCCCCCCCCCCCCC(=O)O)C(=O)O)C(=O)O)C(N)=O)NC(=O)[C@H](CCCNC(=N)N)NC(=O)[C@H](Cc2c[nH]cn2)NC(=O)[C@H](CCC(=O)O)NC(=O)CNC(=O)[C@H](Cc2c[nH]c3ccccc23)NC(=O)[C@H](CC(=O)O)NC(=O)[C@H](CCC(N)=O)NC(=O)[C@H](Cc2cn(C)c3ccccc23)NC1=O [Compound 113] (Ac-ASGEYCI[Trp(1-Me)]QDWGEHRC[Sar]EGEK([γGlu-Gly-γGlu-C18 diacid])-NH2; disulfide 6-16) | < 500 |  | 
CC[C@H](C)[C@@H]1NC(=O)[C@@H](NC(=O)[C@@H](NC(=O)[C@H](CCCCN)NC(=O)[C@H](CCC(=O)O)NC(=O)[C@H](CCCCN)NC(C)=O)[C@@H](C)CC)CSSC[C@@H](C(=O)N[C@H](C(=O)N[C@@H](CCC(=O)O)C(=O)N[C@@H](CCCCN)C(=O)N[C@@H](CCC(=O)O)C(N)=O)[C@@H](C)O)NC(=O)[C@H](CCCNC(=N)N)NC(=O)[C@H](Cc2c[nH]cn2)NC(=O)[C@H](CCC(=O)O)NC(=O)CNC(=O)[C@H](Cc2c[nH]c3ccccc23)NC(=O)[C@H](CC(=O)O)NC(=O)[C@H](CCC(N)=O)NC(=O)[C@H](Cc2c[nH]c3ccccc23)NC1=O [Compound 37] (Ac-KEKICIWQDWGEHRCTEKE-NH2; disulfide 5-15) | < 250 |  | 
